Experiment [1] concerns vascular smooth muscle cells. Briefly: Horizontal vascular smooth muscle thin film (hMTF) contractility assay. The experiment is classed as cell-based. As to the method:
FIG. 12 contrasts the use of fluorescent microscopy and the use of brightfield stereo microscopy of vascular smooth muscle (VSM) horizontal MTFs during an assay of the invention as described in Example 5. The top row depicts fluorescent microscopy photographs of VSM horizontal MTFs comprising fluorescent beads embedded in the PDMS film. […] (A) Photographs taken 5 minutes after the start of the experiment, the films are slightly bent up from the glass due to the initial contraction of VSM. […] Polydimethylsiloxane (PDMS) thin film substrates were fabricated via a multi-step spin coating process. Poly(N-isopropylacrylamide) ([…]) (Polysciences, Inc.) was dissolved at 10 wt % in 99.4% 1-butanol (w/v) and was then deposited as a thin layer onto the open glass islands, then the top protective film layer was peeled off. Sylgard 184 (Dow Corning) polydimethylsiloxane (PDMS) elastomer was mixed at a 10:1 base to curing agent ratio doped with 0.1% by volume […] Fluorospheres (Invitrogen), and spun coated on top of the […] coated glass cover slip which was then cured. The next day, the bottom protective film was peeled off. A mask, printed on transparencies was used to cut the glass into desired shapes. MTFs were released from the cover slip once the cells have formed the appropriate 2D microstructure. The MTFs were either cut out by hand, cut out using a robotic system, pre-cut prior to cell incubation. In one specific example of, e.g., horizontal MTF production, the middle section was cut out, so that only six rectangles remained in the area that had […]). Once the Tyrode's solution cools below 35° C., the […] layer transitions from a hydrophobic state to a hydrophilic state and begins to dissolve. As the […] dissolved the middle section cutout was peeled off the substrate with a pair of tweezers. Once the […] dissolves completely, the contraction of the myocytes pulls the MTF (the remaining rectangles) free from the rigid substrate. In the case of the horizontal MTF, rectangles remain with one end partially fixed to the substrate. Actuation and observation of multiple MTFs was carried out in a physiologic solution (e.g., normal Tyrodes solution). The horizontal […]) fabricated with vascular smooth muscle cells in the presence of fluorescent beads were treated with the endothelium-produced vasoconstrictor endothelin-1 (ET-1) followed by the rho-kinase inhibitor HA-1077. […] Quantification and analysis of thin film motion was performed using ImageJ (NIH) and MATLAB software. From the thresholded fluorescent images the length of the projection of the film on the horizontal plane was tracked throughout the contraction and the radius of curvature calculated. Using elasticity theory, the contraction stress necessary to induce the measured changes in curvature were calculated.

The test system of experiment [2] is Human umbilical artery vascular smooth muscle. Briefly: Vascular muscular thin film (vMTF) contractility assay, films on posts. The class given is cell-based. As to the method: Human umbilical artery vascular smooth muscle was seeded on thin films at 300 cells/mm^2 in complete M199 medium (M199 supplemented with 10% fetal bovine serum (FBS), penicillin, streptomycin, L-glutamine, glucose and vitamin B12). The tissue was cultured in complete M199 for 48 hours, with a single media change at 24 hours. After 48 hours, the cells were serum starved for an additional 48 hours (M199 supplemented with penicillin, streptomycin, L-glutamine, glucose and vitamin B12, but no FBS).
Muscle thin films were transferred to fresh Tyrode's solution in the testing dish (FIG. 1), which is maintained at 37° C. by a peltier heating system. Films were adhered to Teflon coated posts (FIG. 3) by moving them into close contact using tweezers. The films were imaged using a stereomicroscope outfitted with fluorescent imaging capability. Both brightfield and fluorescent images were captured every thirty seconds. In the experiment shown in FIG. […]
Quantification and analysis of thin film motion was performed using ImageJ (NIH) and MATLAB software. Thresholded fluorescent images (FIG. 4B) were fit to circles whose radii of curvature could be measured (FIG. 4C). Using elasticity theory, the contraction stress necessary to induce the measured changes in curvature were calculated (FIG. 4D). […]

Bridges are numbered along the chain shown (N, C = ends). Where no end group is shown, it is not given here.

Regarding `O=S(=O)(c1cccc2cnccc12)N1CCCNCC1` [HA-1077, fasudil], the “effect on VSM horizontal MTFs (FIG. 12C)” value in experiment [1] (30 minutes after addition of the rho-kinase inhibitor) is on record as “causes the VSM to completely relax”. The “change in radius of curvature” value in experiment [1] (hMTFs, 100 mM HA-1077 following ET-1) is listed as “rapid increase in radius of curvature”. Also, in experiment [2] (vMTFs, 100 mM HA-1077 following ET-1), the “stress after treatment (residual stress)” value is given as 3.1±0.8 kPa.
As for “endothelin-1 (CSCSSLMDKECVYFCHLDIIW; disulfide 1-15, 3-11; ends not checked; UniProt P05305 53-73, looked up) [ET-1, endothelium-produced vasoconstrictor]”, in experiment [1] (20 minutes after addition of the vasoconstrictor), the “effect on VSM horizontal MTFs (FIG. 12B)” value is “causes the VSM to contract”. Further, the “change in radius of curvature” value in experiment [1] (hMTFs stimulated with 50 nM ET-1 at time 0) is on record as “decrease in their radii of curvature”. Moreover, the “increase in cell generated stress” value in experiment [2] (vMTFs stimulated with 50 nM ET-1 at time 0) was 5.06±0.75 kPa.

Values taken from patent US9857356B2, “Muscle chips and methods of use thereof” (President and Fellows of Harvard College, priority 2011, dated 2018).
